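Protocol summary: plate cells (96-well), add compound at 5 concentrations, incubate 48 h, interpolate endpoints linearly. GI50 is the concentration that inhibits growth by half. TGI marks complete inhibition of growth.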 Some results are limits rather than exact numbers.

Among the test systems are EKVX NSCLC; SK-MEL-2 melanoma; NCI-H23 lung; COLO 205 colon; UACC-62 melanoma; ACHN renal; OVCAR-8 ovarian; TK-10 renal; DU-145 prostate; UACC-257 melanoma.
What all share (experiment): NCI-60 cell line screen, 48 h

For `C=C1CC[C@@H]2[C@](C)(COC(C)=O)[C@H](OC(C)=O)CC[C@@]2(C)[C@@H]1CC(Nc1ccc(S(=O)(=O)NC(C)=O)cc1)C1=CCOC1=O` (some centres undefined), the GI50 in the test with EKVX NSCLC was 10.8 µM; in the test on SK-MEL-2 melanoma, 8.68 µM; in the test on NCI-H23 lung, 5.52 µM; in the test on COLO 205 colon, 1.81 µM; in the test with UACC-62 melanoma it was 2.59 µM; with ACHN renal, 7.54 µM. Besides, the GI50 in the test on OVCAR-8 ovarian was 2.25 µM; with TK-10 renal, 8.01 µM; with DU-145 prostate it was 2.8 µM; with UACC-257 melanoma, 6.82 µM. In addition, the TGI with EKVX NSCLC stood at 20.9 µM; in the test with SK-MEL-2 melanoma, 19.1 µM; with NCI-H23 lung, 17.4 µM; with COLO 205 colon, 4.82 µM; in the test with UACC-62 melanoma, 10.8 µM; in the test on ACHN renal, 16.5 µM. Also, the TGI with OVCAR-8 ovarian stood at 8.42 µM; in the test on TK-10 renal, 16.9 µM; with DU-145 prostate it was 9.74 µM; in the test with UACC-257 melanoma, 16 µM.
Consider `Cc1cc(S(=O)(=O)Nc2nc3ccccc3o2)c(SCc2ccccc2)cc1Cl`, for which the GI50 in the test on EKVX NSCLC was 21.9 µM; in the test with SK-MEL-2 melanoma, 48.6 µM; with NCI-H23 lung, 19 µM; with COLO 205 colon, 22.1 µM; with UACC-62 melanoma, 28.7 µM; with ACHN renal, 17.9 µM. Also, the GI50 in the test with OVCAR-8 ovarian was 21 µM; in the test with TK-10 renal it was 28.6 µM; with DU-145 prostate it was 26.5 µM; with UACC-257 melanoma, 21.2 µM. The TGI with EKVX NSCLC is 55.8 µM; in the test with SK-MEL-2 melanoma it was greater than 100 µM; with NCI-H23 lung, 40.3 µM; in the test on COLO 205 colon, 51.1 µM; with UACC-62 melanoma it was 79.5 µM; with ACHN renal, 38.4 µM. Besides, the TGI turned out to be 50.2 µM in the test on OVCAR-8 ovarian, 90.7 µM in the test with TK-10 renal, 77.9 µM in the test with DU-145 prostate and 50.2 µM with UACC-257 melanoma.
Consider `COc1ccc(C(c2cc(OC)c(OC)c(OC)c2)n2ccnc2)cc1O` (centres undefined), for which the GI50 was 0.72 µM with EKVX NSCLC; 0.882 µM in the test on NCI-H23 lung; 0.361 µM with COLO 205 colon; 0.668 µM in the test on UACC-62 melanoma; 0.693 µM in the test on ACHN renal; 0.407 µM in the test on DU-145 prostate. Moreover, the GI50 in the test with UACC-257 melanoma is 1.44 µM. The TGI in the test with EKVX NSCLC was greater than 100 µM; in the test on NCI-H23 lung, greater than 100 µM; in the test with COLO 205 colon, 1.77 µM; in the test with UACC-62 melanoma it was greater than 100 µM; with ACHN renal, greater than 100 µM; with DU-145 prostate, greater than 100 µM. The same molecule had a TGI with UACC-257 melanoma greater than 100 µM.
As for `Cc1nc([P+](c2ccccc2)(c2ccccc2)c2ccccc2)c(Sc2sc(-c3ccccc3)nc2[P+](c2ccccc2)(c2ccccc2)c2ccccc2)o1`, the GI50 in the test with EKVX NSCLC is 1.1 µM; with SK-MEL-2 melanoma, 2.15 µM; in the test with NCI-H23 lung, 1.99 µM; in the test with UACC-62 melanoma it was 1.51 µM; in the test with ACHN renal, 1.65 µM; in the test on OVCAR-8 ovarian it was 0.867 µM. Further, the GI50 in the test with TK-10 renal was 2.09 µM; in the test on DU-145 prostate, 1.22 µM; in the test on UACC-257 melanoma, 2 µM. For the same molecule, the TGI was determined as 5.64 µM in the test with EKVX NSCLC; 4.92 µM in the test on SK-MEL-2 melanoma; 5.92 µM in the test with NCI-H23 lung; 3.67 µM in the test with UACC-62 melanoma; 4.92 µM in the test on ACHN renal; 11.6 µM with OVCAR-8 ovarian. The TGI with TK-10 renal was determined as 7.63 µM; in the test on DU-145 prostate, 4.96 µM; in the test with UACC-257 melanoma it was 8.81 µM.
Consider `CCOC(=O)/C(=C/N1CCN(C(=O)c2ccco2)C1=S)C(=O)c1ccccc1`, for which the GI50 with EKVX NSCLC was 9.53 µM; in the test with NCI-H23 lung it was 7.7 µM; in the test with COLO 205 colon it was 19.2 µM; in the test on UACC-62 melanoma, 7.64 µM; in the test on ACHN renal, 8.48 µM; with OVCAR-8 ovarian, 11.7 µM. Also, the GI50 in the test with TK-10 renal was 12.4 µM; in the test with DU-145 prostate it was 8.04 µM. For the same molecule, the TGI with EKVX NSCLC was 23.7 µM; in the test on NCI-H23 lung, 14.7 µM; in the test on COLO 205 colon, greater than 50 µM; in the test with UACC-62 melanoma it was 17.5 µM; in the test on ACHN renal it was 17.6 µM; in the test with OVCAR-8 ovarian it was 35.2 µM. For the same molecule, the results for the TGI in the test on TK-10 renal and with DU-145 prostate were 34 µM and 24.1 µM, respectively.
As for `Fc1cc2[nH]ncc2c2c3c(c(-c4cn[nH]c4C(F)(F)F)nc12)CCCC3`, the GI50 is 1.84 µM in the test on EKVX NSCLC; 2.07 µM with SK-MEL-2 melanoma; 1.49 µM in the test with NCI-H23 lung; 1.55 µM in the test on COLO 205 colon; 1.31 µM with UACC-62 melanoma; 0.947 µM with ACHN renal. Further, the GI50 with OVCAR-8 ovarian was 2.04 µM; in the test with DU-145 prostate, 1.72 µM. The TGI turned out to be 5.3 µM in the test on EKVX NSCLC; 5.67 µM in the test on SK-MEL-2 melanoma; 6.49 µM with NCI-H23 lung; 4.32 µM in the test with COLO 205 colon; 3 µM with UACC-62 melanoma; 7.58 µM with ACHN renal. The TGI with OVCAR-8 ovarian and with DU-145 prostate was greater than 100 µM throughout.
In the case of `O=C(Nc1ccc2[nH]nc(-c3ccncc3)c2c1)[C@@H]1CCN(CC(=O)N2CCN(c3ccc(-c4ncccn4)cc3)CC2)C1`, the GI50 was 0.0269 µM in the test with SK-MEL-2 melanoma; 0.0991 µM in the test on NCI-H23 lung; less than 0.012 µM with COLO 205 colon; 2.08 µM in the test on ACHN renal; 3.65 µM in the test on OVCAR-8 ovarian; 7.58 µM with DU-145 prostate. The TGI in the test on SK-MEL-2 melanoma is 0.223 µM; with NCI-H23 lung it was greater than 100 µM; in the test on COLO 205 colon it was greater than 82.3 µM; in the test on ACHN renal, greater than 100 µM; with OVCAR-8 ovarian, greater than 100 µM; in the test on DU-145 prostate it was greater than 100 µM.
As for `CCOC(=O)c1ccc(NC(=O)Nc2nncs2)cc1`, the GI50 with SK-MEL-2 melanoma is 0.734 µM; with NCI-H23 lung it was 0.649 µM; in the test with COLO 205 colon, 0.174 µM; in the test with UACC-62 melanoma, 0.0761 µM; in the test with ACHN renal it was 1.24 µM; in the test with OVCAR-8 ovarian, 0.371 µM. The GI50 in the test on TK-10 renal is 5.79 µM; in the test on DU-145 prostate, 0.309 µM; in the test on UACC-257 melanoma it was 1.43 µM. The TGI with SK-MEL-2 melanoma was found to be 24 µM; in the test on NCI-H23 lung it was 12.1 µM; in the test on COLO 205 colon, 2.63 µM; in the test with UACC-62 melanoma it was 26.4 µM; with ACHN renal it was 23.9 µM; in the test with OVCAR-8 ovarian, 13.5 µM. Also, the values for the TGI in the test on TK-10 renal, in the test with DU-145 prostate and with UACC-257 melanoma were 41.2 µM, 4.11 µM and greater than 85.1 µM, respectively.

The values above are taken from PubChem BioAssay (NCI).
